“And” between values parts separate entries of the source, which are not always exact repeats. Equal entries are not always repeated.
Key:
[1] = 101 kPa, Liquid
[2] = xn = mol fraction of the nth substance listed; conditions: 101 kPa, Liquid

CCCCCCCCCO [nonan-1-ol]
[1]
Conditions	mass density [kg/m3]	speed of sound [m/s]	viscosity [mPa·s]
298.15 K	824.478	1365.5	9.715
303.15 K	821.044	1353.6	7.927
308.15 K	817.582	1331.8	6.664
313.15 K	814.098	1315	5.645

CCCCCCO [hexan-1-ol]
[1]
Conditions	mass density [kg/m3]	speed of sound [m/s]	viscosity [mPa·s]
298.15 K	815.23	1304.7	4.594
303.15 K	812.118	1287.9	3.887
308.15 K	808.482	1271.1	3.359
313.15 K	804.811	1254.5	2.914

CCCCCCCCCCO [decan-1-ol]
[1]
Conditions	mass density [kg/m3]	speed of sound [m/s]	viscosity [mPa·s]
298.15 K	826.762	1380	11.83
303.15 K	822.853	1365	9.754
308.15 K	819.427	1346.1	8.135
313.15 K	815.983	1329.3	6.842

CCCCCCCO [heptan-1-ol]
[1]
Conditions	mass density [kg/m3]	speed of sound [m/s]	viscosity [mPa·s]
298.15 K	818.732	1327.3	5.944
303.15 K	815.287	1313.6	5.069
308.15 K	811.737	1293.9	4.333
313.15 K	808.162	1277.2	3.726

Clc1ccccc1 [chlorobenzene] + CCCCCCCCO
[2]
Conditions	mass density [kg/m3]	speed of sound [m/s]	viscosity [mPa·s]
298.15 K, x1 = 0.1423	848.715	1334.1	5.448
298.15 K, x1 = 0.2807	877.644	1319.1	3.87
298.15 K, x1 = 0.4121	908.104	1303.7	2.788
298.15 K, x1 = 0.5237	936.698	1291.1	2.116
298.15 K, x1 = 0.6158	962.489	1281.2	1.692
298.15 K, x1 = 0.7073	990.466	1272.7	1.363
298.15 K, x1 = 0.7885	1017.46	1267	1.132
298.15 K, x1 = 0.8662	1045.68	1264	0.956
298.15 K, x1 = 0.9331	1072.02	1264	0.841
298.15 K, x1 = 1	1100.97	1268	0.757
303.15 K, x1 = 0.1423	844.912	1317.5	4.64
303.15 K, x1 = 0.2807	873.625	1303.4	3.352
303.15 K, x1 = 0.4121	903.886	1289.6	2.455
303.15 K, x1 = 0.5237	932.283	1277.8	1.89
303.15 K, x1 = 0.6158	957.91	1268.6	1.528
303.15 K, x1 = 0.7073	985.68	1260	1.243
303.15 K, x1 = 0.7885	1012.47	1253.4	1.04
303.15 K, x1 = 0.8662	1040.47	1248.7	0.885
303.15 K, x1 = 0.9331	1066.6	1247.5	0.782
303.15 K, x1 = 1	1095.1	1249.4	0.714
308.15 K, x1 = 0.1423	841.161	1302.6	3.981
308.15 K, x1 = 0.2807	869.616	1289.5	2.919
308.15 K, x1 = 0.4121	899.625	1276	2.174
308.15 K, x1 = 0.5237	927.793	1263.8	1.678
308.15 K, x1 = 0.6158	953.186	1254.6	1.366
308.15 K, x1 = 0.7073	980.694	1245.7	1.119
308.15 K, x1 = 0.7885	1007.21	1238.7	0.956
308.15 K, x1 = 0.8662	1034.92	1233.4	0.833
308.15 K, x1 = 0.9331	1060.82	1230.9	0.752
308.15 K, x1 = 1	1089.08	1230.9	0.677
313.15 K, x1 = 0.1423	836.375	1285.8	3.436
313.15 K, x1 = 0.2807	864.727	1273.2	2.562
313.15 K, x1 = 0.4121	894.659	1260.3	1.934
313.15 K, x1 = 0.5237	922.757	1248.9	1.528
313.15 K, x1 = 0.6158	948.078	1239.6	1.267
313.15 K, x1 = 0.7073	975.5	1230.7	1.037
313.15 K, x1 = 0.7885	1001.95	1223.5	0.891
313.15 K, x1 = 0.8662	1029.57	1217.8	0.76
313.15 K, x1 = 0.9331	1055.42	1214.3	0.681
313.15 K, x1 = 1	1083.66	1212.6	0.617

CCCCCCCO [heptan-1-ol] + Clc1ccccc1
[2], x2 = 0
Conditions	mass density [kg/m3]	speed of sound [m/s]	viscosity [mPa·s]
298.15 K	818.732	1327.3	5.944
303.15 K	815.287	1313.6	5.069
308.15 K	811.737	1293.9	4.333
313.15 K	808.162	1277.2	3.726

CCCCCCCCO [octan-1-ol] + Clc1ccccc1
[2], x2 = 0
Conditions	mass density [kg/m3]	speed of sound [m/s]	viscosity [mPa·s]
298.15 K	821.826	1347.8	7.661
303.15 K	818.23	1338	6.402
308.15 K	814.737	1314.3	5.425
313.15 K	810.098	1297.6	4.628

Clc1ccccc1 [chlorobenzene] + CCCCCCCCCCO
[2]
Conditions	mass density [kg/m3]	speed of sound [m/s]	viscosity [mPa·s]
298.15 K, x1 = 0.1664	852.913	1362.6	7.762
298.15 K, x1 = 0.322	881.587	1344.4	5.123
298.15 K, x1 = 0.4609	911.692	1327	3.484
298.15 K, x1 = 0.5731	939.879	1311.7	2.539
298.15 K, x1 = 0.6619	965.236	1299.5	1.967
298.15 K, x1 = 0.7456	992.108	1288.5	1.517
298.15 K, x1 = 0.8174	1017.95	1280.1	1.243
298.15 K, x1 = 0.8857	1045.67	1273.3	1.017
298.15 K, x1 = 0.9426	1071.48	1269.5	0.865
298.15 K, x1 = 1	1100.67	1268	0.757
303.15 K, x1 = 0.1664	848.821	1343.9	6.542
303.15 K, x1 = 0.322	877.329	1325	4.407
303.15 K, x1 = 0.4609	907.247	1307.2	3.058
303.15 K, x1 = 0.5731	935.236	1292.4	2.262
303.15 K, x1 = 0.6619	960.447	1280.9	1.771
303.15 K, x1 = 0.7456	987.138	1270.5	1.388
303.15 K, x1 = 0.8174	1012.83	1262.6	1.147
303.15 K, x1 = 0.8857	1040.32	1256.1	0.949
303.15 K, x1 = 0.9426	1065.89	1252.2	0.808
303.15 K, x1 = 1	1095.1	1249.4	0.714
308.15 K, x1 = 0.1664	845.166	1326	5.554
308.15 K, x1 = 0.322	873.388	1306.4	3.814
308.15 K, x1 = 0.4609	903.044	1288.1	2.695
308.15 K, x1 = 0.5731	930.8	1272.9	2.021
308.15 K, x1 = 0.6619	955.749	1260.8	1.597
308.15 K, x1 = 0.7456	982.146	1249.5	1.273
308.15 K, x1 = 0.8174	1007.56	1240.8	1.045
308.15 K, x1 = 0.8857	1034.75	1234.6	0.868
308.15 K, x1 = 0.9426	1060.08	1231	0.756
308.15 K, x1 = 1	1089.08	1230.9	0.677
313.15 K, x1 = 0.1664	841.509	1308.6	4.751
313.15 K, x1 = 0.322	869.536	1288.1	3.323
313.15 K, x1 = 0.4609	898.972	1269.1	2.388
313.15 K, x1 = 0.5731	926.509	1253.3	1.816
313.15 K, x1 = 0.6619	951.271	1241.1	1.454
313.15 K, x1 = 0.7456	977.488	1230.1	1.156
313.15 K, x1 = 0.8174	1002.68	1222.1	0.968
313.15 K, x1 = 0.8857	1029.64	1216.5	0.809
313.15 K, x1 = 0.9426	1054.84	1213.4	0.702
313.15 K, x1 = 1	1083.66	1212.6	0.617

Clc1ccccc1 [chlorobenzene]
[1]
Conditions	mass density	speed of sound [m/s]	viscosity [mPa·s]
298.15 K	1100.97 kg/m3 and 1100.67 kg/m3	1268	0.757
303.15 K	1095.1 kg/m3	1249.4	0.714
308.15 K	1089.08 kg/m3	1230.9	0.677
313.15 K	1083.66 kg/m3	1212.6	0.617

From the NIST ThermoML archive (doi:10.1021/je060353z)
